According to ChEMBL document CHEMBL1126635, “Mechanistic interpretation of the genotoxicity of nitrofurans (antibacterial agents) using quantitative structure-activity relationships and comparative molecular field analysis” (J Med Chem, 1993):

Assays:
Escherichia coli = assay: Genotoxicity (SOSIP) on Escherichia coli PQ37 (SOS induction potential data, as a measure of genotoxicity); type: functional
Salmonella typhimurium [1] = assay: Mutagenicity in Salmonella Typhimurium TA98 was determined; type: functional, Salmonella enterica subsp. enterica serovar Typhimurium
Salmonella typhimurium [2] = assay: Mutagenicity in Salmonella Typhimurium TA100 was determined; type: functional, Salmonella enterica subsp. enterica serovar Typhimurium
Salmonella typhimurium [3] = assay: Mutagenicity inSalmonella Typhimurium TA100 was determined; type: functional, Salmonella enterica subsp. enterica serovar Typhimurium
Salmonella typhimurium [4] = assay: Mutagenicity inSalmonella Typhimurium TA98 was determined; type: functional, Salmonella enterica subsp. enterica serovar Typhimurium

SMILES	Log SOSIP (Escherichia coli)	Log TA98 (Salmonella typhimurium [1])	Log TA100 (Salmonella typhimurium [2])	Log TA100 (Salmonella typhimurium [3])	Log TA98 (Salmonella typhimurium [4])
O=[N+]([O-])c1cc2cc3c(cc2o1)CCCC3	2.25	2.63	3.11		
COc1cc2oc([N+](=O)[O-])cc2c2ccccc12	3.86	3.28	3.59		
O=[N+]([O-])c1cc2cc3ccc4cccc5ccc(c2o1)c3c45	3.72				
Cc1c([N+](=O)[O-])oc2cc3c(cc12)CCCC3	3.41	3.32	4.54		
Cc1c([N+](=O)[O-])oc2c3c(ccc12)CCCC3	3.28	2.46	4.38		
O=[N+]([O-])c1cc2c(ccc3cc4ccccc4cc32)o1	4.87	3.95			
CCCCc1c([N+](=O)[O-])oc2ccc3ccccc3c12	4.28				
COc1ccc2ccc3oc([N+](=O)[O-])cc3c2c1Br	4.46				
CC(=O)Cc1c([N+](=O)[O-])oc2ccc3ccccc3c12	3.43				
O=[N+]([O-])c1cc2c(cc3ccc4cccc5ccc2c3c45)o1	5				
COC(=O)Cc1ccc2c(ccc3oc([N+](=O)[O-])cc32)c1	3.18				
CCc1c([N+](=O)[O-])oc2ccc3ccccc3c12	4.32	4.18			
CC(C)c1c([N+](=O)[O-])oc2ccc3ccccc3c12	3.74				
COc1ccc2ccc3oc([N+](=O)[O-])cc3c2c1	4.25	4.75	5.58		
CC(=O)c1ccc2c(ccc3oc([N+](=O)[O-])cc32)c1	3.72				
O=[N+]([O-])c1cc2ccc3cc4ccccc4cc3c2o1	4.08	3.88			
O=[N+]([O-])c1cc2cc3ccccc3c(Br)c2o1	3.04	3.31	2.67		
COc1ccc2cc3c(ccc4oc([N+](=O)[O-])cc43)cc2c1	4.77	4.86			
O=[N+]([O-])c1oc2ccc3ccccc3c2c1-c1ccccc1	4.43				
COc1ccc2ccc3oc([N+](=O)[O-])cc3c2c1OC	4.2				
Cc1c([N+](=O)[O-])oc2ccc3ccccc3c12	4.91	4.91	6.71		
Cc1c([N+](=O)[O-])oc2ccc3cc(Br)ccc3c12	4.81				
Cc1c([N+](=O)[O-])oc2ccccc12	1.2		3.7		

SMILES	Log SOSIP (Escherichia coli)	Log TA98 (Salmonella typhimurium [1])	Log TA100 (Salmonella typhimurium [2])	Log TA100 (Salmonella typhimurium [3])	Log TA98 (Salmonella typhimurium [4])
COc1ccc2oc(-c3ccc([N+](=O)[O-])o3)cc2c1	3.08				
O=[N+]([O-])c1oc2ccc3ccccc3c2c1CCO	3.78	3.59			
Cc1c([N+](=O)[O-])oc2ccc3c(c12)CCCC3	2.11	3.08	3.78		
O=[N+]([O-])c1cc2c(ccc3ccccc32)o1	3.96			4.31	3.33
COc1ccc2c(ccc3oc([N+](=O)[O-])c(C)c32)c1	4.7				
O=[N+]([O-])c1cc2c(ccc3cc(Br)ccc32)o1	4.64	3.61	4.16		
CC(=O)Oc1ccc2c(ccc3oc([N+](=O)[O-])cc32)c1	3				
COc1cccc2cc3cc([N+](=O)[O-])oc3cc12	2.96	3.44	3.07		
Cc1c([N+](=O)[O-])oc2c1ccc1ccccc12	4.34				
O=[N+]([O-])c1cc2c(ccc3cc(O)ccc32)o1	3.58				
O=[N+]([O-])c1cc2ccc3c(c2o1)CCCC3	1.93	2.59	2.95		
COc1ccc2oc([N+](=O)[O-])cc2c1	1.89	1.74	2.8		
COc1ccc2c(C)c([N+](=O)[O-])oc2c1	2.28		3.54		
O=[N+]([O-])c1cc2c3c(ccc2o1)CCCC3	2.08	2.11	2.81		
Cc1ccc2c(ccc3oc([N+](=O)[O-])cc32)c1	3.95				
Cc1c([N+](=O)[O-])oc2cc3ccccc3cc12	3.34				
O=[N+]([O-])c1cc2ccccc2o1	1.53	1.3	1.54		
COc1ccc2c(ccc3oc([N+](=O)[O-])cc32)c1Br	3.43				
COc1cc2cc([N+](=O)[O-])oc2c2ccccc12	3.45	3.25	4.26		
CCOC(=O)COc1ccc2c(ccc3oc([N+](=O)[O-])cc32)c1	3.18				
COc1cc2ccccc2c2cc([N+](=O)[O-])oc12	4.04	4.2	4.66		
COc1ccc2c(ccc3oc([N+](=O)[O-])cc32)c1	4.23	4.9	5.31		
O=[N+]([O-])c1cc2cc(Cl)c3ccccc3c2o1	2.97	3.82	3.96		
